Reference: ChEMBL document CHEMBL1201862, “PubChem BioAssay data set” (2004)
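Interpolation was linear, between the two tested concentrations surrounding the appropriate level; five concentrations were tested over 48 hours in 96-well plates. GI50 marks 50% less growth.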 Active and inactive are the calls of the source. Cut-off read from the data, not from the text of the source: active = GI50 up to about 1.1 µM and inactive = higher.

Legend:
Experiment in all cases: NCI anticancer screen, dose series, 48 h
MDA-MB-435 = tested on: MDA-MB-435
K562 = tested on: K562
HL-60 = tested on: HL-60
KM12 = tested on: KM12
SR = tested on: SR
A498 = tested on: A498
NCI/ADR-RES = tested on: NCI/ADR-RES
786-0 = tested on: 786-0
OVCAR-5 = tested on: OVCAR-5
SF-268 = tested on: SF-268
T47D = tested on: T47D
HCC 2998 = tested on: HCC 2998
HCT-15 = tested on: HCT-15
SNB-75 = tested on: SNB-75
EKVX = tested on: EKVX
ACHN = tested on: ACHN
NCI-H460 = tested on: NCI-H460
MDA-N = tested on: MDA-N
HT-29 = tested on: HT-29
SNB-19 = tested on: SNB-19
SF-539 = tested on: SF-539
RPMI-8226 = tested on: RPMI-8226
SK-MEL-28 = tested on: SK-MEL-28
OVCAR-4 = tested on: OVCAR-4
CAKI-1 = tested on: CAKI-1
MDA-MB-231 = tested on: MDA-MB-231
NCI-H23 = tested on: NCI-H23
HOP-92 = tested on: HOP-92
IGROV-1 = tested on: IGROV-1
SK-OV-3 = tested on: SK-OV-3
COLO 205 = tested on: COLO 205
MCF7 = tested on: MCF7
NCI-H522 = tested on: NCI-H522
HOP-62 = tested on: HOP-62
SF-295 = tested on: SF-295
M14 = tested on: M14
UACC-62 = tested on: UACC-62
TK-10 = tested on: TK-10
SN12C = tested on: SN12C
OVCAR-3 = tested on: OVCAR-3
UACC-257 = tested on: UACC-257
LOX IMVI = tested on: LOX IMVI
HCT-116 = tested on: HCT-116
CCRF-CEM = tested on: CCRF-CEM
OVCAR-8 = tested on: OVCAR-8
SK-MEL-2 = tested on: SK-MEL-2
Malme-3M = tested on: Malme-3M
MOLT-4 = tested on: MOLT-4
DU-145 = tested on: DU-145
U-251 = tested on: U-251
PC-3 = tested on: PC-3
UO-31 = tested on: UO-31
SW-620 = tested on: SW-620
SK-MEL-5 = tested on: SK-MEL-5
NCI-H226 = tested on: NCI-H226
A549 = tested on: A549
RXF 393 = tested on: RXF 393
Hs-578T = tested on: Hs-578T

Measured: GI50

CNc1ccc(C(=O)CC(O)CCC(C)C2OC(=O)CC(O)CC(=O)CC(O)CC(O)CC(O)CC(O)CC3(O)CC(O)C(C(=O)NCCN4CCCCC4)C(CC(OC4OC(C)C(O)C(N)C4O)\C=C/C=C\C=C/C=C/C=C/C=C\C=C/C2C)O3)cc1 (centres undefined)
inactive: K562 2.07 µM | HL-60 3.88 µM | KM12 1.82 µM
active: MDA-MB-435 1.01 µM | SR 0.272 µM | A498 0.288 µM

CC(=O)OCC1OC(O[C@@H]2C[C@H]3C(C)(C)[C@H](OC(C)=O)CC[C@]3(C)[C@H]3CC[C@]4(C)C(=CC[C@H]4[C@@H](C)C[C@@H](O)[C@H](O)C(C)(C)O)[C@@]32C)C(O)C(O)C1O (some centres undefined)
inactive: NCI/ADR-RES > 100 µM | 786-0 16.4 µM | OVCAR-5 14.1 µM | SF-268 15.8 µM | T47D 16.7 µM | HCC 2998 20.8 µM | SNB-75 22 µM | EKVX 19.1 µM | ACHN 16.7 µM | NCI-H460 17.5 µM | MDA-N 18.4 µM | HT-29 17.4 µM | SNB-19 15.1 µM | SF-539 16.4 µM | RPMI-8226 12.2 µM | SK-MEL-28 15.9 µM | OVCAR-4 16 µM | CAKI-1 14.2 µM | MDA-MB-231 16.9 µM | NCI-H23 18.6 µM | HOP-92 17 µM | IGROV-1 18.6 µM | MDA-MB-435 14.8 µM | SK-OV-3 18.5 µM | COLO 205 14 µM | MCF7 17.3 µM | K562 18.3 µM | NCI-H522 1.67 µM | HOP-62 15.8 µM | SF-295 18.7 µM | M14 21.3 µM | UACC-62 16.1 µM | HL-60 15.7 µM | TK-10 17 µM | SN12C 17.5 µM | OVCAR-3 15.4 µM | UACC-257 19 µM | LOX IMVI 16.2 µM | HCT-116 14.4 µM | CCRF-CEM 17.6 µM | OVCAR-8 17.3 µM | SK-MEL-2 17.4 µM | Malme-3M 17.8 µM | SR 16.3 µM | MOLT-4 16.8 µM | DU-145 17.3 µM | U-251 12.7 µM | PC-3 16.9 µM | UO-31 17.4 µM | SW-620 17.9 µM | A498 19.9 µM
17.3 µM: HCT-15

O=c1c2cc([N+](=O)[O-])ccc2n2n1CCCC2
inactive: NCI/ADR-RES > 100 µM | 786-0 > 100 µM | OVCAR-5 > 100 µM | SK-MEL-5 > 100 µM | SF-268 > 100 µM | T47D > 100 µM | HCC 2998 > 100 µM | SNB-75 > 100 µM | EKVX > 100 µM | ACHN > 100 µM | NCI-H460 > 100 µM | MDA-N > 100 µM | HT-29 > 100 µM | SNB-19 > 100 µM | SF-539 > 100 µM | RPMI-8226 > 100 µM | SK-MEL-28 > 100 µM | OVCAR-4 > 100 µM | CAKI-1 > 100 µM | MDA-MB-231 > 100 µM | NCI-H23 > 100 µM | NCI-H226 > 100 µM | HOP-92 > 100 µM | IGROV-1 > 100 µM | MDA-MB-435 > 100 µM | SK-OV-3 > 100 µM | A549 > 100 µM | COLO 205 > 100 µM | RXF 393 > 100 µM | K562 > 100 µM | NCI-H522 > 100 µM | HOP-62 > 100 µM | SF-295 > 100 µM | M14 > 100 µM | UACC-62 > 100 µM | HL-60 > 100 µM | TK-10 24.2 µM | SN12C > 100 µM | OVCAR-3 > 100 µM | UACC-257 > 100 µM | LOX IMVI > 100 µM | HCT-116 > 100 µM | CCRF-CEM > 100 µM | OVCAR-8 > 100 µM | KM12 > 100 µM | Malme-3M > 100 µM | SR > 100 µM | MOLT-4 > 100 µM | DU-145 > 100 µM | U-251 > 100 µM | PC-3 > 100 µM | UO-31 71.3 µM | Hs-578T > 100 µM | SW-620 > 100 µM | A498 > 100 µM
> 100 µM: HCT-15
